In patent EP2112155B1, “Hydrogensulfate salt of 2-acetoxy-5-(a-cyclopropylcarbonyl-2-fluorobenzyl)-4,5,6,7-tetrahydrothieno[3,2-c]pyridine and its preparation” (Sandoz AG, priority 2008, dated 2009):
Where a name gives a salt, the structure may show the parent alone.

Test: Solubility of various Prasugrel acid addition salts, determined according to European Pharmacopoeia 6.0, 5.11 (2008)
Assay type: physicochemical
Source text: As bioavailability depends, among others, on solubility, an optimal active substance for oral application should show a high solubility in a broad pH-range. […] Table 2: Solubility of various Prasugrel acid addition salts

Solubility (Acetate buffer pH 4.5): insoluble
Solubility (Hydrochloric acid medium pH 1.2): sparingly soluble
Solubility (water): insoluble
Structure (SMILES): CC(=O)Oc1cc2c(s1)CCN(C(C(=O)C1CC1)c1ccccc1F)C2 (stereo not drawn) [Prasugrel hydrochloride]
